# Source: patent US20100179098A1, “FUROST-5-ENE-3, 22, 26-TRIOL GLYCOSIDE COMPOUND FOR PREVENTING AND TREATMENT CANCER” (priority 2006, published 2010)
# Read-outs that look alike come from different tables or passages of the source.
# What was measured:
# GP7TB cells [1] = assay: Growth inhibition (cell number), GP7TB; format: cell-based, rat; conditions: for Amount of Cells: GP7TB, mean of triplicate; for IC50: Rattus norvegicus, GP7TB cells, read-out: 50% inhibition concentration (IC50)
# Method: Rat liver cancer cell line GP7TB and human liver cancer cell line Huh-7 and HepG2 at 10^4 cells each were seeded in individual wells of a 96-well cultural plate. After overnight incubation, different concentrations of the extracts were added therein for 24 hours. Subsequently, the medium was discarded, and the medium with 20 μl/ml of MTS was added for 1 hour. Since MTS reagent contains 3-(4,5-dimethylhiazol-2-yl)-5-(3-carboxymethoxyphenyl)-2-(4-sulfophenyl)-2H-tetrazolium, which could be metabolized by NADH or NADPH dehydrogenase in living cells to a formazan product, cellular survival rates could be estimated from different readings at 490 nm.
# The experiments were performed in triplicate and the results were performed by average calculation.
# Lung, A549 = assay: alamarBlue cancer cell inhibition, A549; format: cell-based; conditions: A549, 72 hours
# Method: (§1) Each suspension of various cancer cell lines was inoculated in a 96-well cultural plate and incubated at 37° C. under 5% carbon dioxide for 24 hours. Then, 100 μL of medium and 2 μl of different concentrations (100, 10, 1, 0.1 and 0.01 μM) of dichotomin (PK-22-1) were added therein. In addition, the cancer cells treated with a control drug, mitomycin, were incubated and treated in the same manner. After 72 hours of incubation, 20 μl of alamarBlue reagent was added into each well and the cells were incubated for another 6 hours. Cell densities were detected with a fluorescence detector, GENios equipped with a microreader, using an exciting wavelength of 530 nm and an emission wavelength of 590 nm. The IC50 value means the concentration at which the experimental drug reduces the cell numbers by 50% at the end of the experiment. This value represents the inhibition activity of the test drugs.
# Liver, Hep 3B = assay: alamarBlue cancer cell inhibition, Hep 3B; format: cell-based; conditions: 72 hours
# Method: as §1
# Colon, HT-29 = assay: alamarBlue cancer cell inhibition, HT-29; format: cell-based; conditions: HT-29, 72 hours
# Method: as §1
# GP7TB cells [2] = assay: In vivo growth inhibition of rat liver tumor by intratumoral injection
# Method: The back of each rat was injected subcutaneously with 3×10^6 cells of GP7TB cells. The tumor grows up to 0.3 cm in diameter after about one week. A single dose of dichotomin (PK-22-1, 2.0 mg/kg) or the control buffer (PBS) was directly injected into the tumor once every day for 8 consecutive days. The tumor size was measured, and the cancer cell growth inhibition effects of the control group and dichotomin treated group were compared.
# HepG2 cells = assay: Nuclear DNA fragmentation (agarose gel electrophoresis), HepG2; format: cell-based, human; conditions: HepG2, 12.5 μg/ml, 48 hours
# GP7TB cells [3] = assay: Ex-vivo anti-tumor experiment: pretreated GP7TB cells grafted in F344 rats; set-up: species or system rat; conditions: GP7TB cells pretreated 12.5 μg/ml 24 hours; 5×10^6 cells S.C.; after three weeks
# Method: GP7TB cells (3×10^6 cells each) were incubated in several 10-cm cultural dishes and treated with dichotomin (PK-22-1) or the extract without dichotomin (PK-22-3) at a concentration of 12.5 μg/ml for 24 hours. These cells were collected. GP7TB cells, PK-22-1-treated GP7TB cells, and PK-22-3-treated GP7TB cells (5×10^6 cells each) were separately injected subcutaneously at three different locations on the back of each F344 rat. […] The tumor sizes of rats inoculated with GP7TB cells treated with the extract PK-22-3 without dichotomin were the same as those of rats treated with GP7TB cells (control group).
# GP7TB cells [4] = assay: Nuclear DNA fragmentation (agarose gel electrophoresis), GP7TB; format: cell-based, rat; conditions: 12.5 μg/ml, 48 hours
# Method: To understand the GP7TB cell growth inhibition mechanism of the active components and the extracts, GP7TB cells were treated with the extracts and dichotomin at a constant concentration of 12.5 μg/ml for 48 hours. The cellular DNA was extracted and analyzed with agarose gel electrophoresis. […] Therefore, it could be concluded that dichotomin could induce apoptosis of the abovementioned cell lines.
compound,measurement,setting,value
COc1cccc2c1C(=O)c1c(O)c3c(c(O)c1C2=O)C[C@@](O)(C(=O)CO)C[C@@H]3O[C@H]1C[C@H](N)[C@H](O)[C@H](C)O1 [Adriamycin],Amount of Cells,GP7TB cells [1]; 1 μg/ml,7.80 × 10^4 cells/ml
same,Amount of Cells,GP7TB cells [1]; 2 μg/ml,2.30 × 10^4 cells/ml
same,Amount of Cells,GP7TB cells [1]; 4 μg/ml,2.00 × 10^4 cells/ml
same,Amount of Cells,GP7TB cells [1]; 6 μg/ml,3.00 × 10^4 cells/ml
same,Amount of Cells,GP7TB cells [1]; 8 μg/ml,2.50 × 10^4 cells/ml
same,Amount of Cells,GP7TB cells [1]; 10 μg/ml,2.30 × 10^4 cells/ml
same,Amount of Cells,GP7TB cells [1]; 12 μg/ml,1.60 × 10^4 cells/ml
same,IC50,GP7TB cells [1]; by mass,1.54 µg/mL
same,IC50,GP7TB cells [1]; molar,2660 nM
"CO[C@@]12[C@H](COC(N)=O)C3=C(C(=O)C(C)=C(N)C3=O)N1C[C@@H]1N[C@@H]12 [Mitomycin, reference compound]",IC50,"Lung, A549; Homo sapiens",160 nM
same,IC50,"Liver, Hep 3B; Homo sapiens, Hep3B",0.04 µM
same,IC50,"Colon, HT-29; Homo sapiens",0.33 µM
"(25R)-26-O-beta-D-glucopyranosyl-22-hydroxy-5-ene-furostan-3beta, 26-diol-3-O-alpha-L-rhamnopyranosyl-(1→4)-alpha-L-rhamnopyranosyl-(1→4)-[alpha-L-rhamnopyranosyl-(1→2)]-beta-D-glucopyranoside [PK-22-1]",Tumor volume after injection (Day 8),"GP7TB cells [2]; 2.0 mg/kg into the tumor once daily for 8 days, volume = 0.52 × length × width × height",(0.692 cm^3)
same,Apoptosis of cancer cells in tumor (pathological section),"GP7TB cells [2]; 2.0 mg/kg intratumoral, 8 days",exhibited apoptosis
same,Tumor size relative to the control group,"GP7TB cells [2]; 2.0 mg/kg intratumoral, 8 days, vs PBS",only half the size
same,Tumor volume before injection (Day 0),"GP7TB cells [2]; baseline, volume = 0.52 × length × width × height",(0.142 cm^3)
same,Growth (folds),"GP7TB cells [2]; tumor volume Day 8 vs Day 0, 2.0 mg/kg intratumoral, PBS control 9.26",4.87 folds
same,Amount of Cells,GP7TB cells [1]; 1 μg/ml,1.30 × 10^5 cells/ml
same,Amount of Cells,GP7TB cells [1]; 2 μg/ml,4.60 × 10^4 cells/ml
same,Amount of Cells,GP7TB cells [1]; 4 μg/ml,2.00 × 10^4 cells/ml
same,Amount of Cells,GP7TB cells [1]; 6 μg/ml,1.10 × 10^4 cells/ml
same,Amount of Cells,GP7TB cells [1]; 8 μg/ml,5.00 × 10^4 cells/ml
same,Amount of Cells,GP7TB cells [1]; 10 μg/ml,3.00 × 10^3 cells/ml
same,Amount of Cells,GP7TB cells [1]; 12 μg/ml,1.60 × 10^3 cells/ml
same,IC50,"Lung, A549",840 nM
same,Nuclear DNA fragmentation,HepG2 cells,most notable effects
same,Rats that did not form any tumor,GP7TB cells [3],six rats of the nine
same,Tumor size relative to tumors from untreated GP7TB cells (control group),GP7TB cells [3],one sixth
same,IC50,"Liver, Hep 3B",8.5 µM
same,IC50,"Colon, HT-29",7.3 µM
same,Nuclear DNA fragmentation,GP7TB cells [4],most notable effects
